Where two headings read alike, the source gives them in different places.
Molecular target: T1, cloned human MC4R (Homo sapiens, UniProt P32245)
T1 construct: made in house; host or cells: Hi5 insect cells (baculovirus infection); membrane preparation
Assay: Membrane binding assay: competitive inhibition of [125I]NDP-α-MSH binding
Details: for inhibition at 10 µM: read-out: Displacement Rate (%) (at 10 μM)
Procedure: Hi5 cells are infected using the following protocol: Cells at a density of 1×10^6 cells/mL are spun down at 1000 rpm (Beckman GS-6KR centrifuge) for 10 minutes. Cells are resuspended in 10% of their original volume in a sterile 50 mL conical centrifuge tube wrapped with aluminum foil. Virus is added at a Multiplicity of Infection (MOI) of 3 and incubated for 1 hour at room temperature with gentle shaking. […] Cells are spun down in 50 mL conical centrifuge tubes at 1000 rpm for 10 minutes. Each of the resulting pellets are resuspended in 10 mL of cold (4° C.) membrane buffer (25 mM HEPES, pH 7.4, 140 mM NaCl, 1.2 mM MgCl2, 2.5 mM CaCl2, 10 μG/mL Aprotinin, 10 μG/mL Leupeptin) and Dounce homogenized using 10-12 strokes. […] The resulting pellet is resuspended in cold membrane buffer in a total of ¼ of the original volume by vortexing and aspiration using a syringe and 27 gauge needle. Protein content is determined (Bradford, Bio-Rad Protein Assay). Membranes are aliquoted in microcentrifuge tubes and quick frozen in liquid nitrogen. Store at −80° C. until use. The membrane binding buffer is composed of 25 mM HEPES, pH 7.4, 140 mM NaCl, 1.2 mM MgCl2, 2.5 mM CaCl2, 0.1% BSA. […] The mixture is filtered with Brandel Microplate 96 filter apparatus using 96-well GF/B filter presoaked in 1-% polyethyleneimine (Sigma). The filter is washed (4 times with a total of 1 mL per well) with cold wash buffer consisting of 20 mM HEPES, pH 7.4, 5 mM MgCl2. […] 100 μl of Wallac Optiphase Supermix scintillation fluid is added to each well. The top is sealed and the plates are shaken to insure that the filters are thoroughly soaked with fluid. […] Dose-response curves are fitted by […] analyses and IC50 values are calculated using ExcelFit.

[1] = at 10 μM, [125I]NDP-α-MSH displacement

T1 sequence (P32245 whole entry): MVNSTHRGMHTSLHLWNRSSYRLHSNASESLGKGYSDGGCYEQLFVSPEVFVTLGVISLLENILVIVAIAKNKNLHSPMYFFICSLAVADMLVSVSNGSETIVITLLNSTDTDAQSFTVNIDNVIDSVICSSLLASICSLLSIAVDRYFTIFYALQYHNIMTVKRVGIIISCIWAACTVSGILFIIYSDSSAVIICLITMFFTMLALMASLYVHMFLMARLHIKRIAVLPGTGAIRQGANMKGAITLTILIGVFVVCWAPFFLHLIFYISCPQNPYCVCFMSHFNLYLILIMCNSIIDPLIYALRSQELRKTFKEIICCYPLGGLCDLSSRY

With `N[C@@H](Cc1ccc(OCc2ccccc2)cc1)C(=O)N1CCCN(CC2CCCCC2)CC1` [Example 53] the inhibition at 10 µM [1] was 35 to 70% and the IC50 (read-out: MC4R IC50) was > 3 µM.

`COc1cccc(CN2CCCN(C(=O)[C@@H](N)Cc3ccc(OCc4ccccc4)cc3)CC2)c1OC` [Example 54] was tested, and the inhibition at 10 µM [1] was 35 to 70% and the IC50 (read-out: MC4R IC50) was > 3 µM.

With `N[C@@H](Cc1ccc(OCc2ccccc2)cc1)C(=O)N1CCCN(Cc2cccc(C(F)(F)F)c2)CC1` [Example 55] the inhibition at 10 µM [1] was 35 to 70% and the IC50 (read-out: MC4R IC50) was > 3 µM.

In the case of `N[C@@H](Cc1ccc(OCc2ccccc2)cc1)C(=O)N1CCCN(Cc2ccc(Br)cc2)CC1` [Example 56], the IC50 is reported as > 3 µM and the inhibition at 10 µM is reported as 35 to 70%.

With `N[C@@H](Cc1ccc(OCc2ccccc2)cc1)C(=O)N1CCCN(Cc2ccccc2Cl)CC1` [Example 57] the inhibition at 10 µM [1] was 35 to 70% and the IC50 (read-out: MC4R IC50) was > 3 µM.

In the case of `N[C@@H](Cc1ccc(OCc2ccccc2)cc1)C(=O)N1CCCN(Cc2c(F)cccc2Cl)CC1` [Example 58], the inhibition at 10 µM [1] is reported as 35 to 70% and the IC50 (read-out: MC4R IC50) is reported as > 3 µM.

For `COc1cc(CN2CCCN(C(=O)[C@@H](N)Cc3ccc(OCc4ccccc4)cc3)CC2)cc(Br)c1OC` [Example 59], the inhibition at 10 µM [1] was 35 to 70% and the IC50 (read-out: MC4R IC50) was > 3 µM.

`N[C@@H](Cc1ccc(OCc2ccccc2)cc1)C(=O)N1CCCN(Cc2ccccc2)CC1` [Example 60] was tested, and the inhibition at 10 µM [1] was 35 to 70% and the IC50 (read-out: MC4R IC50) was > 3 µM.

With `N[C@@H](Cc1ccc(OCc2ccccc2)cc1)C(=O)N1CCCN(Cc2ccc([N+](=O)[O-])cc2)CC1` [Example 61] the inhibition at 10 µM [1] was 35 to 70% and the IC50 (read-out: MC4R IC50) was > 3 µM.

`N[C@@H](Cc1ccc(OCc2ccccc2)cc1)C(=O)N1CCCN(Cc2cnc3ccccc3c2)CC1` [Example 62] was tested, and the inhibition at 10 µM [1] was 35 to 70% and the IC50 (read-out: MC4R IC50) was > 3 µM.

In the case of `COc1cccc(CC(C)N2CCCN(C(=O)[C@@H](N)Cc3ccc(OCc4ccccc4)cc3)CC2)c1` (some centres unmarked) [Example 63], the inhibition at 10 µM [1] is reported as 35 to 70% and the IC50 (read-out: MC4R IC50) is reported as > 3 µM.

With `N[C@@H](Cc1ccc(OCc2ccccc2)cc1)C(=O)N1CCCN(Cc2ccc(Cl)c([N+](=O)[O-])c2)CC1` [Example 64] the inhibition at 10 µM was 35 to 70% and the IC50 (read-out: MC4R IC50) was > 3 µM.

In the case of `Cc1cccc(CN2CCCN(C(=O)[C@@H](N)Cc3ccc(OCc4ccccc4)cc3)CC2)c1` [Example 65], the inhibition at 10 µM [1] is reported as 35 to 70% and the IC50 (read-out: MC4R IC50) is reported as > 3 µM.

For `N[C@@H](Cc1ccc(OCc2ccccc2)cc1)C(=O)N1CCCN(Cc2cc(F)ccc2F)CC1` [Example 66], the inhibition at 10 µM [1] was 35 to 70% and the IC50 (read-out: MC4R IC50) was > 3 µM.

`COc1ccc(CC(C)N2CCCN(C(=O)[C@@H](N)Cc3ccc(OCc4ccccc4)cc3)CC2)cc1` (some centres unmarked) [Example 67] was tested, and the inhibition at 10 µM [1] was 35 to 70% and the IC50 (read-out: MC4R IC50) was > 3 µM.

`N[C@@H](Cc1ccc(OCc2ccccc2)cc1)C(=O)N1CCCN(C2CCN(CCc3ccccc3)CC2)CC1` [Example 68] was tested, and the inhibition at 10 µM [1] was 35 to 70% and the IC50 (read-out: MC4R IC50) was > 3 µM.

For `Cc1cccc(CN2CCCN(C(=O)[C@@H](N)Cc3ccc(OCc4ccccc4)cc3)CC2)n1` [Example 69], the inhibition at 10 µM [1] was 35 to 70% and the IC50 (read-out: MC4R IC50) was > 3 µM.

`N[C@@H](Cc1ccc(OCc2ccccc2)cc1)C(=O)N1CCCN(Cc2ccc3c(c2)OCCO3)CC1` [Example 70] was tested, and the inhibition at 10 µM [1] was 35 to 70% and the IC50 (read-out: MC4R IC50) was > 3 µM.

In the case of `N[C@@H](Cc1ccc(OCc2ccccc2)cc1)C(=O)N1CCCN(Cc2cc3c(cc2Cl)OCO3)CC1` [Example 71], the inhibition at 10 µM is reported as 35 to 70% and the IC50 (read-out: MC4R IC50) is reported as > 3 µM.

`N[C@@H](Cc1ccc(OCc2ccccc2)cc1)C(=O)N1CCCN(C2CCN(Cc3ccccc3)CC2)CC1` [Example 73] was tested, and the inhibition at 10 µM [1] was 35 to 70% and the IC50 (read-out: MC4R IC50) was > 3 µM.

In the case of `CC1CCC(N2CCCN(C(=O)[C@@H](N)Cc3ccc(OCc4ccccc4)cc3)CC2)CC1` (some centres unmarked) [Example 74], the inhibition at 10 µM [1] is reported as 35 to 70% and the IC50 (read-out: MC4R IC50) is reported as > 3 µM.

For `N[C@@H](Cc1ccc(OCc2ccccc2)cc1)C(=O)N1CCCN(Cc2ccncc2)CC1` [Example 76], the inhibition at 10 µM [1] was 35 to 70% and the IC50 (read-out: MC4R IC50) was > 3 µM.

With `N[C@@H](Cc1ccc(OCc2ccccc2)cc1)C(=O)N1CCCN(Cc2cc3c(cc2[N+](=O)[O-])OCO3)CC1` [Example 77] the inhibition at 10 µM [1] was 35 to 70% and the IC50 (read-out: MC4R IC50) was > 3 µM.

With `N[C@@H](Cc1ccc(OCc2ccccc2)cc1)C(=O)N1CCCN(Cc2ccc(F)cc2)CC1` [Example 78] the inhibition at 10 µM [1] was 35 to 70% and the IC50 (read-out: MC4R IC50) was > 3 µM.

`CN(C)c1ccc(CN2CCCN(C(=O)[C@@H](N)Cc3ccc(OCc4ccccc4)cc3)CC2)cc1` [Example 79] was tested, and the inhibition at 10 µM [1] was 35 to 70% and the IC50 (read-out: MC4R IC50) was > 3 µM.

`CC(C)(C)c1ccc(Oc2cccc(CN3CCN(C(=O)[C@@H](N)Cc4ccc(OCc5ccccc5)cc4)CC3)c2)cc1` [Example 80] was tested, and the inhibition at 10 µM [1] was 91 to 100% and the IC50 (read-out: MC4R IC50) was < 1.5 µM.

For `N[C@@H](Cc1ccc(OCc2ccccc2)cc1)C(=O)N1CCN(Cc2ccc(-c3ccc(Cl)cc3)o2)CC1` [Example 81], the inhibition at 10 µM [1] was 91 to 100% and the IC50 (read-out: MC4R IC50) was < 1.5 µM.

`N[C@@H](Cc1ccc(OCc2ccccc2)cc1)C(=O)N1CCN(Cc2ccccc2Sc2ccc(Cl)cc2)CC1` [Example 82] was tested, and the inhibition at 10 µM [1] was 91 to 100% and the IC50 (read-out: MC4R IC50) was < 1.5 µM.

With `N[C@@H](Cc1ccc(OCc2ccccc2)cc1)C(=O)N1CCN(Cc2ccc3c(c2)Cc2ccccc2-3)CC1` [Example 83] the inhibition at 10 µM [1] was 91 to 100% and the IC50 (read-out: MC4R IC50) was < 1.5 µM.

With `N[C@@H](Cc1ccc(OCc2ccccc2)cc1)C(=O)N1CCN(Cc2ccc(Oc3ccccc3)cc2)CC1` [Example 84] the inhibition at 10 µM [1] was 91 to 100% and the IC50 (read-out: MC4R IC50) was < 1.5 µM.

With `N[C@@H](Cc1ccc(OCc2ccccc2)cc1)C(=O)N1CCN(Cc2cccc(OCc3ccccc3)c2)CC1` [Example 85] the inhibition at 10 µM [1] was 91 to 100% and the IC50 (read-out: MC4R IC50) was < 1.5 µM.

With `N[C@@H](Cc1ccc(OCc2ccccc2)cc1)C(=O)N1CCN(Cc2cccc(Oc3cc(Cl)cc(Cl)c3)c2)CC1` [Example 86] the inhibition at 10 µM [1] was 91 to 100% and the IC50 (read-out: MC4R IC50) was < 1.5 µM.

In the case of `N[C@@H](Cc1ccc(OCc2ccccc2)cc1)C(=O)N1CCN(Cc2cn(Cc3ccccc3)c3ccccc23)CC1` [Example 87], the inhibition at 10 µM [1] is reported as 91 to 100% and the IC50 (read-out: MC4R IC50) is reported as < 1.5 µM.

`N[C@@H](Cc1ccc(OCc2ccccc2)cc1)C(=O)N1CCN(Cc2ccc(/C=C/c3ccccc3)cc2)CC1` [Example 88] was tested, and the inhibition at 10 µM [1] was 91 to 100% and the IC50 (read-out: MC4R IC50) was < 1.5 µM.

With `CCn1c2ccccc2c2cc(CN3CCN(C(=O)[C@@H](N)Cc4ccc(OCc5ccccc5)cc4)CC3)ccc21` [Example 89] the inhibition at 10 µM [1] was 91 to 100% and the IC50 (read-out: MC4R IC50) was < 1.5 µM.

With `N[C@@H](Cc1ccc(OCc2ccccc2)cc1)C(=O)N1CCN(Cc2cccc(Oc3cccc(C(F)(F)F)c3)c2)CC1` [Example 90] the inhibition at 10 µM [1] was 91 to 100% and the IC50 (read-out: MC4R IC50) was < 1.5 µM.

In the case of `N[C@@H](Cc1ccc(OCc2ccccc2)cc1)C(=O)N1CCN(Cc2ccc(N(c3ccccc3)c3ccccc3)cc2)CC1` [Example 91], the inhibition at 10 µM [1] is reported as 91 to 100% and the IC50 (read-out: MC4R IC50) is reported as < 1.5 µM.

`CC(C)(C)c1cc(CN2CCN(C(=O)[C@@H](N)Cc3ccc(OCc4ccccc4)cc3)CC2)cc(C(C)(C)C)c1O` [Example 92] was tested, and the inhibition at 10 µM [1] was 91 to 100% and the IC50 (read-out: MC4R IC50) was < 1.5 µM.

With `N[C@@H](Cc1ccc(OCc2ccccc2)cc1)C(=O)N1CCN(Cc2cccc(Cl)c2Cl)CC1` [Example 93] the inhibition at 10 µM [1] was 91 to 100% and the IC50 (read-out: MC4R IC50) was < 1.5 µM.

For `N[C@@H](Cc1ccc(OCc2ccccc2)cc1)C(=O)N1CCN(Cc2ccccc2C(F)(F)F)CC1` [Example 94], the inhibition at 10 µM [1] was 91 to 100% and the IC50 (read-out: MC4R IC50) was 1.5 to 3 µM.

For `N[C@@H](Cc1ccc(OCc2ccccc2)cc1)C(=O)N1CCN(Cc2ccc(-c3ccccc3)cc2)CC1` [Example 95], the inhibition at 10 µM [1] was 91 to 100% and the IC50 (read-out: MC4R IC50) was < 1.5 µM.

In the case of `CCCCc1ccc(CN2CCN(C(=O)[C@@H](N)Cc3ccc(OCc4ccccc4)cc3)CC2)cc1` [Example 96], the inhibition at 10 µM [1] is reported as 91 to 100% and the IC50 (read-out: MC4R IC50) is reported as < 1.5 µM.

In the case of `Cc1ccc(S(=O)(=O)n2cc(CN3CCN(C(=O)[C@@H](N)Cc4ccc(OCc5ccccc5)cc4)CC3)c3ccccc32)cc1` [Example 97], the inhibition at 10 µM [1] is reported as 91 to 100% and the IC50 (read-out: MC4R IC50) is reported as < 1.5 µM.

Source: patent US6916812B2, “Alpha-aminoamide derivatives as melanocortin agonists” (Bristol-Myers Squibb Company, priority 2001, dated 2005)
